Source: PubChem BioAssay AID1549 (Sanford-Burnham Center for Chemical Genomics, 2009)
Calls of active or inactive are those of the source. How the calls were made is not given here.

Target: Influenza A virus M2 proton channel (A/TW/4845/1999 H1N1)
Test: NMR binding screen, influenza A virus M2 proton channel, Kd (AID 1549)
Conditions: M2 protein

SMILES	Kd
Cc1nnsc1C(=O)Nc1ccc(C(N)=O)cc1	> 4 mM (inactive)
O=c1[nH]cc(NCc2ccccc2)c(=O)[nH]1	> 4 mM (inactive)
Cn1c(NCC(=O)O)nc2c1c(=O)[nH]c(=O)n2C	> 4 mM (inactive)
Cc1ccc2c(c1)=C(c1sc(N)nc1O)C(=O)N=2	> 4 mM (inactive)
COC(CC(=O)O)c1nc2ccccc2s1 (stereo not drawn)	> 4 mM (inactive)
COc1ccc2c(C)cc(=O)oc2c1	> 4 mM (inactive)
Cc1cc(=O)cc(C)n1NC(N)=S	> 4 mM (inactive)
NC(=O)c1cc(N)ccc1N1CCCCC1	> 4 mM (inactive)
NC(=O)c1cc2c(n(-c3ccccc3)c1=O)CCCC2=O	> 4 mM (inactive)
O=S1(=O)CCC(NC(=S)Nc2ccccn2)C1 (stereo not drawn)	> 4 mM (inactive)
Cc1ccc(C(=O)N2CCC(C(N)=O)CC2)cc1C	> 4 mM (inactive)
COc1ccc2c(CC(=O)O)coc2c1	> 4 mM (inactive)
CON(C)C(=O)Nc1ccc(Cl)cc1	> 4 mM (inactive)
CC(=O)Nc1ccc2c(c1)n(C)c(=O)n2C	> 4 mM (inactive)
CC12CN([N+](=O)[O-])C3(C(N)=O)CC1CCC23C (stereo not drawn)	> 4 mM (inactive)
O=C(c1ccccc1)c1ccc(N2CCNCC2)cc1	> 4 mM (inactive)
O=C(NCc1ccccc1)c1ccc[n+]([O-])c1	> 4 mM (inactive)
NS(=O)(=O)c1ccc(NC(=O)C(F)(F)F)cc1	> 4 mM (inactive)
O=C(O)CN1C(=O)c2ccc(C(=O)O)cc2C1=O	> 4 mM (inactive)
Nc1ncnc(NC2CCS(=O)(=O)C2)c1[N+](=O)[O-] (stereo not drawn)	> 4 mM (inactive)
O=C1C=CC(=O)N1c1ccccc1O	> 4 mM (inactive)
Nc1nnc(SCc2cccnc2)s1	> 4 mM (inactive)
NC12CC3CC(C1)CC(CC(=O)O)(C3)C2	> 4 mM (inactive)
Cc1cc(C(=O)Nc2ccc3c(c2)OCCO3)c(C)o1	> 4 mM (inactive)

SMILES	Kd
Cc1ccc2cccc(OC(=O)N3CCCC3)c2n1	> 4 mM (inactive)
C=C(C)CSc1nc2nc(C)cc(C)n2n1	> 4 mM (inactive)
O=CN1CCN(C(=O)c2ccco2)CC1	> 4 mM (inactive)
Cc1cc(O)c2c(c1O)C(=O)c1c(O)cc(C)c(O)c1C2=O	> 4 mM (inactive)
O=C1O[C@H](C(O)CO)C(O)=C1O (stereo partly drawn)	> 4 mM (inactive)
COc1ccc([C@H]2COc3c(ccc(O)c3OC)C2)c(OC)c1O	> 4 mM (inactive)
CC1(C)CCC(C)(C)c2cc(C(=O)O)ccc21	> 4 mM (inactive)
CC(=O)Nc1cccc(-c2nc3ccccc3c(=O)o2)c1	> 4 mM (inactive)
Cn1c(=O)c2c([nH]c(=O)n2C)n(C)c1=O	> 4 mM (inactive)
O=c1[nH]c(CN2CCN(CCO)CC2)nc2ccccc12	> 4 mM (inactive)
CCOc1cccc(C(=O)c2ccc(O)c(O)c2O)c1	> 4 mM (inactive)
CSc1cc(C)[nH]c(=O)n1	> 4 mM (inactive)
Cc1cc2nc(SCC(=O)O)nc(C)c2cc1C	> 4 mM (inactive)
CN(C)C(=O)CSc1nc2ccccc2c(=O)[nH]1	> 4 mM (inactive)
O=C(O)C1CC(=O)N(Cc2cccs2)C1 (stereo not drawn)	> 4 mM (inactive)
CCCCCC(=O)Cc1cc(O)cc(O)c1C(=O)Oc1cc(CC(=O)CCCCC)c(C(=O)O)c(OC)c1	> 4 mM (inactive)
O=C(O)CCNc1n[nH]c(=O)[nH]c1=O	> 4 mM (inactive)
Cc1cc(C)n2nc(SCC(=O)c3ccccc3)nc2n1	> 4 mM (inactive)
CC(C)NC(=S)NCc1cnn(C)c1	> 4 mM (inactive)
Cc1c(C(=O)O)cnn1-c1ccccc1	> 4 mM (inactive)
O=C(O)c1ccc(Nc2nncc(=O)[nH]2)cc1	> 4 mM (inactive)
c1ccc(CCc2nc(-c3ccncc3)no2)cc1	> 4 mM (inactive)
C=C1C2CC[C@H]3[C@]4(C)C[C@H](OC5OC(CO)C(OS(=O)(=O)O)C(OS(=O)(=O)O)C5OC(=O)CC(C)C)C[C@@H](C(=O)O)[C@H]4CC[C@]3(C2)[C@H]1O (stereo partly drawn)	> 4 mM (inactive)
COc1c(C(C)C)oc2cc3oc(=O)ccc3cc12	> 4 mM (inactive)

SMILES	Kd
CNS(=O)(=O)c1cc(OC)ccc1OC	> 4 mM (inactive)
C[C@@H]1O[C@@H](O[C@H]2CC[C@]3(C=O)C4CC[C@]5(C)[C@@H](C6=CC(=O)OC6)CC[C@]5(O)C4CC[C@]3(O)C2)[C@H](O)[C@H](O)[C@H]1O (stereo partly drawn)	> 4 mM (inactive)
CCn1c(C)c(C(C)=O)c(N2CCOCC2)nc1=S	> 4 mM (inactive)
CCCCCCCCCCCC1=C(O)C(=O)C=C(O)C1=O	> 4 mM (inactive)
CN(C)C(=O)Oc1cccc(-c2nnco2)c1	> 4 mM (inactive)
COc1c(-c2coc3cc4c(cc3c2=O)CC(O)C(C)(C)O4)ccc2c1C=CC(C)(C)O2 (stereo not drawn)	> 4 mM (inactive)
Nc1ccc(OCc2ccccc2)cc1	> 4 mM (inactive)
CC(=O)Oc1ccccc1N1C(=O)C=CC1=O	> 4 mM (inactive)
CC(=O)NC(=S)Nc1ccc(N(C)C(C)=O)cc1	> 4 mM (inactive)
CC(C)Nc1ncnc2c1nnn2C	> 4 mM (inactive)
CC(O)C(=O)N/N=C/c1cccs1 (stereo not drawn)	> 4 mM (inactive)
CS(=O)(=O)c1cccc(C(=O)Nc2nccs2)c1	> 4 mM (inactive)
C=CCNC(=O)c1ccc(Cl)cc1Cl	> 4 mM (inactive)
O=C(O)C(Cc1cnc[nH]1)N1C(=O)c2ccccc2C1=O (stereo not drawn)	> 4 mM (inactive)
COc1ccc(-c2noc(-c3ccco3)n2)cc1OC	> 4 mM (inactive)
CC(=O)O[C@@H]1CC2C(C)(C)C(=O)C=C[C@]2(C)C2CC[C@@]3(C)[C@H](c4ccoc4)OC(=O)[C@H]4O[C@]43[C@@]21C (stereo partly drawn)	> 4 mM (inactive)
N#CCSc1nc(-c2ccccc2)cs1	> 4 mM (inactive)
COc1ccc2[nH]cc(CN(C)C)c2c1	> 4 mM (inactive)
CSc1nnnn1-c1cccc(O)c1	> 4 mM (inactive)
Cc1cc(O)cc(=O)o1	> 4 mM (inactive)
Cn1cccc1C(=O)NS(=O)(=O)c1ccccc1Cl	> 4 mM (inactive)
O=C(O)CCC(=O)Nc1nnc(C(F)(F)F)s1	> 4 mM (inactive)
COc1cc(C)c(Cl)cc1S(=O)(=O)N(C)C	> 4 mM (inactive)
COc1ccccc1NC(=O)c1cc[n+]([O-])cc1	> 4 mM (inactive)

SMILES	Kd
CN1CCN(c2nc3c(c(=O)[nH]2)CCCC3)CC1	> 4 mM (inactive)
O=C(c1ccccc1)N1CCOCC1	> 4 mM (inactive)
CCC1(CC)C(=O)N=C(N)NC1=O	> 4 mM (inactive)
CC(=O)NCc1nc2ccccc2[nH]1	> 4 mM (inactive)
O=C(NCc1ccc2c(c1)OCO2)c1cccs1	> 4 mM (inactive)
CC1(C)Cc2c(c(-c3ccco3)[nH]c(=O)c2C#N)CO1	> 4 mM (inactive)
C=C(C)C1(O)OC(=O)C=C1OC (stereo not drawn)	> 4 mM (inactive)
Cc1sc2nc(SC3CCOC3=O)[nH]c(=O)c2c1C (stereo not drawn)	> 4 mM (inactive)
O=C1CN(C(=O)c2ccccc2)c2ccccc2N1	> 4 mM (inactive)
c1cc2c(cc1[C@H]1OC[C@H]3[C@@H]1CO[C@H]3c1ccc3c(c1)OCO3)OCO2	> 4 mM (inactive)
Clc1ncnc2[nH]ncc12	> 4 mM (inactive)
O=C(Oc1ccc(-c2nnco2)cc1)N1CCCCC1	> 4 mM (inactive)
CC(C)n1c(Nn2cnnc2)nc2ccccc21	> 4 mM (inactive)
CN1C(=O)c2ccc(N=C3NC(=O)CS3)cc2C1=O	> 4 mM (inactive)
CC1CCc2cc(F)ccc2N1C(=O)c1ccc(=O)[nH]n1 (stereo not drawn)	> 4 mM (inactive)
CN1CCN(C2CCN(Cc3ccccc3)CC2)CC1	> 4 mM (inactive)
CSc1ccc2nnc(-c3cccnc3)n2n1	> 4 mM (inactive)
NC(=O)c1cccc(Cl)n1	> 4 mM (inactive)
COc1ccc(S(=O)(=O)N2CCC(C(N)=O)CC2)cc1	> 4 mM (inactive)
CC(C)(C)NC(=O)N1CCC(C(N)=O)CC1	> 4 mM (inactive)
O=S(=O)(c1ccc(F)c(Cl)c1)N1CCCC1	> 4 mM (inactive)
NC(=O)c1cc(N)cc(C(N)=O)c1	> 4 mM (inactive)
CC(=O)c1c(C)nc(-c2ccc(F)cc2)n1O	> 4 mM (inactive)
O=C(Nc1ccc2c(c1)OCO2)c1cccc(F)c1	> 4 mM (inactive)

SMILES	Kd
NC(=O)c1ccccc1N=Cc1ccco1	> 4 mM (inactive)
CC1(C)Cn2c(nnc2-c2ccccc2)S1	> 4 mM (inactive)
Cc1nnc(SCc2ccon2)n1-c1ccccc1	> 4 mM (inactive)
O=S1(=O)NC(=NCc2ccco2)c2ccccc21	> 4 mM (inactive)
Nc1nc2c3ccccc3nc(Cc3ccccc3)n2n1	> 4 mM (inactive)
Cc1ccccc1NS(=O)(=O)c1ccc(F)cc1	> 4 mM (inactive)
COc1ccc(NC2=NCC(C)S2)cc1 (stereo not drawn)	> 4 mM (inactive)
O=C(O)c1sccc1-n1cccc1	> 4 mM (inactive)
c1coc(-c2nc(-c3ccncc3)no2)c1	> 4 mM (inactive)
COc1ccc2[nH]cc(CCNC(C)=O)c2c1	> 4 mM (inactive)
Nc1ncc2[nH]cnc2n1	> 4 mM (inactive)
CC(=O)Nc1ccc(NC(C)=O)c(C(F)(F)F)c1	> 4 mM (inactive)
C(=N\n1cnnc1)/c1cccs1	> 4 mM (inactive)
O=c1[nH]c2c(c(=O)n1C1CCCCC1)CCC2	> 4 mM (inactive)
O=c1[nH]cc(NCc2ccco2)c(=O)[nH]1	> 4 mM (inactive)
C[C@H]1[C@H](C)CC[C@]2(C(=O)O)CC[C@]3(C)C(=CCC4[C@@]5(C)C[C@@H](O)[C@H](O)[C@@](C)(CO)C5[C@H](O)C[C@]43C)[C@H]12 (stereo partly drawn)	> 4 mM (inactive)
NS(=O)(=O)c1ccc(NC(=O)c2cccs2)cc1	> 4 mM (inactive)
c1ccc(Cc2nnc3sc(-c4ccncc4)nn23)cc1	> 4 mM (inactive)
O=c1[nH]c2ccc(S(=O)(=O)NC3CC3)cc2[nH]1	> 4 mM (inactive)
CCOC(=O)Nc1ccc2c(C)cc(=O)oc2c1	> 4 mM (inactive)
Cn1ncc(N2CCOCC2)c(Cl)c1=O	> 4 mM (inactive)
O=C(O)/C=C(\CC(=O)O)C(=O)O	> 4 mM (inactive)
